The target in assay [1] is T1, G12D-mutant human KRAS (amino acid residues 1-188) (Homo sapiens, UniProt P01116, G12D).
T1 construct: G12D or G12C-mutant human KRAS (amino acid residues 1-188) with FLAG tag; made in house; host or cells: E. coli
As to the kind of experiment: KRAS Binding Disruption Assay (AlphaScreen; biotinylated KRpep-2d analogue or RAF1-RBD), G12D. The conditions noted are these: KRAS G12D; geometric mean; read-out: KRAS GMean IC50 (uM) MUTATION: G12D. In short, it runs like this:
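Displacement format with mutant KRAS, biotinylated KRpep-2d analogue or RAF1-RBD (5-20 nM each) at pH 7.5 with 5 mM MgCl2.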
In general terms: Bead proximity is the source of the signal in Alpha formats.

For assay [2], the target named is T2, G12V-mutant human KRAS (amino acid residues 1-188) (Homo sapiens, UniProt P01116, G12V).
T2 construct: G12V-mutant human KRAS (amino acid residues 1-188) with FLAG tag was purified from E. coli; made in house; host or cells: E. coli
As to the kind of experiment: KRAS Binding Competition Assay (AlphaScreen; biotinylated KRpep-2d analogue), G12V. The conditions noted are these: geometric mean, read-out: KRAS GMean IC50 (uM) MUTATION: G12V.

Here are results for 16 molecules from US20230081426A1, “COMPOUNDS AND METHODS FOR KRAS MODULATION AND INDICATIONS THEREFOR” (Plexxikon Inc., priority 2020, published 2023).

A word on the IC50: it is the concentration at which inhibition is half-maximal. On to `CN(C)C(=O)CCc1nc(N2[C@@H]3CC[C@H]2CNC3)c2ccc(-c3cc(O)cc4ccccc34)cc2n1` [P-0199, 3-(4-((1R,5S)-3,8-diazabicyclo[3.2.1]octan-8-yl)-7-(3-hydroxynaphthalen-1-yl)quinazolin-2-yl)-N,N-dimethylpropanamide], for which the IC50 in assay [1] and in assay [2] was 10 to 100 µM each time.
For `Oc1cc(-c2ccc3c(N4[C@@H]5CC[C@H]4CNC5)nc(CC4CCNCC4)nc3c2)c2ccccc2c1` [P-0200, 4-(4-((1R,5S)-3,8-diazabicyclo[3.2.1]octan-8-yl)-2-(piperidin-4-ylmethyl)quinazolin-7-yl)naphthalen-2-ol], the results for the IC50 in assay [1] and in assay [2] were 0.0001 to 10 µM and 10 to 100 µM, respectively.
The matching figures for `CN1CCC(Cc2nc(N3[C@@H]4CC[C@H]3CNC4)c3ccc(-c4cc(O)cc5ccccc45)cc3n2)CC1` [P-0201, 4-(4-((1R,5S)-3,8-diazabicyclo[3.2.1]octan-8-yl)-2-((1-methylpiperidin-4-yl)methyl)quinazolin-7-yl)naphthalen-2-ol]: 0.0001 to 10 µM and 10 to 100 µM.
Regarding `CN1CCC[C@H]1COc1nc(N2[C@@H]3CC[C@H]2CN(C(=O)[C@@H]2C[C@@H](O)CN2)C3)c2ccc(-c3cc(O)cc4ccccc34)cc2n1` [P-0202, ((1R,5S)-8-(7-(3-hydroxynaphthalen-1-yl)-2-(((S)-1-methylpyrrolidin-2-yl)methoxy)quinazolin-4-yl)-3,8-diazabicyclo[3.2.1]octan-3-yl)((2S,4R)-4-hydroxypyrrolidin-2-yl)methanone], the IC50 in assay [1] was in the range of 0.0001 to 10 µM; in assay [2], 10 to 100 µM.
For `CN1CCN(CCCS(=O)(=O)N2[C@@H]3CC[C@H]2CN(c2nc(OCC45CCCN4CCC5)nc4c(F)c(-c5cc(O)cc6ccccc56)ccc24)C3)CC1` [P-0203, 4-(8-fluoro-4-((1R,5S)-8-((3-(4-methylpiperazin-1-yl)propyl)sulfonyl)-3,8-diazabicyclo[3.2.1]octan-3-yl)-2-((tetrahydro-1H-pyrrolizin-7a(5H)-yl)methoxy)quinazolin-7-yl)naphthalen-2-ol], in that order: 0.0001 to 10 µM and 0.0001 to 10 µM.
`CN1CCC[C@H]1COc1nc(N2[C@@H]3CC[C@H]2CN(C(=O)[C@@H]2C[C@@H](O)CN2)C3)c2ccc(-c3cc(O)cc4ccccc34)cc2n1` [P-0204, ((1R,5S)-8-(7-(3-hydroxynaphthalen-1-yl)-2-(((S)-1-methylpyrrolidin-2-yl)methoxy)quinazolin-4-yl)-3,8-diazabicyclo[3.2.1]octan-3-yl)((2S,4R)-4-hydroxypyrrolidin-2-yl)methanone]: the IC50 in assay [1] and in assay [2] was 10 to 100 µM in each case.
As for `CN1CCC[C@H]1COc1nc(N2[C@@H]3CC[C@H]2CN(C(=O)[C@H]2CCCN2)C3)c2ccc(-c3cc(O)cc4ccccc34)cc2n1` [P-0205, 4-((1R,5S)-3-(D-prolyl)-3,8-diazabicyclo[3.2.1]octan-8-yl)-7-(3-hydroxynaphthalen-1-yl)-2-(((S)-1-methylpyrrolidin-2-yl)methoxy)quinazoline], the IC50 in assay [1] was in the range of 10 to 100 µM; in assay [2] it was 100 to 1000 µM.
The matching figures for `CNCC(=O)N1C[C@H]2CC[C@@H](C1)N2c1nc(OC[C@@H]2CCCN2C)nc2cc(-c3cc(O)cc4ccccc34)ccc12` [P-0206, 1-((1R,5S)-8-(7-(3-hydroxynaphthalen-1-yl)-2-(((S)-1-methylpyrrolidin-2-yl)methoxy)quinazolin-4-yl)-3,8-diazabicyclo[3.2.1]octan-3-yl)-2-(methylamino)ethan-1-one]: 10 to 100 µM and 10 to 100 µM.
For `CN1CCC[C@H]1COc1nc(N2[C@@H]3CC[C@H]2CN(C(=O)Cn2ccnc2)C3)c2ccc(-c3cc(O)cc4ccccc34)cc2n1` [P-0207, 1-((1R,5S)-8-(7-(3-hydroxynaphthalen-1-yl)-2-(((S)-1-methylpyrrolidin-2-yl)methoxy)quinazolin-4-yl)-3,8-diazabicyclo[3.2.1]octan-3-yl)-2-(1H-imidazol-1-yl)ethan-1-one], in that order: 10 to 100 µM and 10 to 100 µM.
For `CN1CCC[C@H]1COc1nc(N2[C@@H]3CC[C@H]2CN(C(=O)NC2CN4CCC2CC4)C3)c2ccc(-c3cc(O)cc4ccccc34)cc2n1` (stereo partly drawn) [P-0208, (1R,5S)-8-(7-(3-hydroxynaphthalen-1-yl)-2-(((S)-1-methylpyrrolidin-2-yl)methoxy)quinazolin-4-yl)-N-(quinuclidin-3-yl)-3,8-diazabicyclo[3.2.1]octane-3-carboxamide], in that order: 0.0001 to 10 µM and 10 to 100 µM.
Regarding `CN1CCN(CCNC(=O)N2C[C@H]3CC[C@@H](C2)N3c2nc(OC[C@@H]3CCCN3C)nc3cc(-c4cc(O)cc5ccccc45)ccc23)CC1` [P-0209, (1R,5S)-8-(7-(3-hydroxynaphthalen-1-yl)-2-(((S)-1-methylpyrrolidin-2-yl)methoxy)quinazolin-4-yl)-N-(2-(4-methylpiperazin-1-yl)ethyl)-3,8-diazabicyclo[3.2.1]octane-3-carboxamide], the IC50 in assay [1] and in assay [2] was 10 to 100 µM each time.
With `CN1CCC[C@H]1COc1nc(N2[C@@H]3CC[C@H]2CN(C(=O)Nc2cccnc2)C3)c2ccc(-c3cc(O)cc4ccccc34)cc2n1` [P-0210, (1R,5S)-8-(7-(3-hydroxynaphthalen-1-yl)-2-(((S)-1-methylpyrrolidin-2-yl)methoxy)quinazolin-4-yl)-N-(pyridin-3-yl)-3,8-diazabicyclo[3.2.1]octane-3-carboxamide], the half-inhibitory concentration (IC50) in assay [1] and in assay [2] was 10 to 100 µM in each case.
In the case of `CN1CCC[C@H]1COc1nc(N2[C@@H]3CC[C@H]2CN(C(=O)NCC(N)=O)C3)c2ccc(-c3cc(O)cc4ccccc34)cc2n1` [P-0211, (1R,5S)-N-(2-amino-2-oxoethyl)-8-(7-(3-hydroxynaphthalen-1-yl)-2-(((S)-1-methylpyrrolidin-2-yl)methoxy)quinazolin-4-yl)-3,8-diazabicyclo[3.2.1]octane-3-carboxamide], the IC50 in assay [1] and in assay [2] was 10 to 100 µM each time.
For `CN1CCC[C@H]1COc1nc(N2[C@@H]3CC[C@H]2CN(C(=O)NC2COCC2(C)C)C3)c2ccc(-c3cc(O)cc4ccccc34)cc2n1` (stereo partly drawn) [P-0212, (1R,5S)-N-(4,4-dimethyltetrahydrofuran-3-yl)-8-(7-(3-hydroxynaphthalen-1-yl)-2-(((S)-1-methylpyrrolidin-2-yl)methoxy)quinazolin-4-yl)-3,8-diazabicyclo[3.2.1]octane-3-carboxamide], the half-inhibitory concentration (IC50) in assay [1] and in assay [2] was 10 to 100 µM throughout.
Take `CN1CCC[C@H]1COc1nc(N2[C@@H]3CC[C@H]2CN(C(=O)NO)C3)c2ccc(-c3cc(O)cc4ccccc34)cc2n1` [P-0213, (1R,5S)-N-hydroxy-8-(7-(3-hydroxynaphthalen-1-yl)-2-(((S)-1-methylpyrrolidin-2-yl)methoxy)quinazolin-4-yl)-3,8-diazabicyclo[3.2.1]octane-3-carboxamide]: the IC50 in assay [1] and in assay [2] was 10 to 100 µM throughout.
For `CONC(=O)N1C[C@H]2CC[C@@H](C1)N2c1nc(OC[C@@H]2CCCN2C)nc2cc(-c3cc(O)cc4ccccc34)ccc12` [P-0214, (1R,5S)-8-(7-(3-hydroxynaphthalen-1-yl)-2-(((S)-1-methylpyrrolidin-2-yl)methoxy)quinazolin-4-yl)-N-methoxy-3,8-diazabicyclo[3.2.1]octane-3-carboxamide], the IC50 in assay [1] and in assay [2] was 10 to 100 µM each time.
